Test results taken from US11123391B2, “Nasal composition” (INQPHARM GROUP SDN BHD, priority 2015, dated 2021).

Tested on: HMC1 cells
Assay: In vitro testing of mast cell line HMC-1: histamine release after IgE/anti-IgE, ELISA of supernatant
Format: cell-based
Details: calcium ionophore 100 μg/ml, 30 min; for histamine production / release: no IgE/anti-IgE
Description: Mast cell lines, i.e. HMC1 cells (provided by Dr Joseph H. Butterfield; Mayo Clinic, Rochester, Minn., USA), were cultured in Isocove's Modified Dulbecco's Medium (IMDM) containing 10% Fetal Bovine Serum (FBS), 2 mM L-glutamine, 50 μM 2-mercaptoethanol, 100 U/mL penicillin and 100 μg/mL streptomycin. Cells were maintained at 37° C. in 5% CO2 in a humidified atmosphere.
Percentage of living cells was determined by trypan blue staining. A 1:10 dilution with 50 μl cell suspension and 450 μl trypan blue was prepared and the number of living and dead cells was counted in a hemocytometer. 10^6 living cells were transferred into safe-lock Eppendorf tubes. Cell suspensions were centrifuged (200 g, 5 min) and supernatant was discarded.
The effect of perilla oil, sesame oil and a combination of perilla oil and sesame oil (in a combination ratio of 1:1) in the vehicle Kolliphor ELP (polyoxyl-35 hydrogenated castor oil) was determined. The positive control Cromolyn in phosphate buffer saline (PBS), the vehicles PBS and ELP, and calcium ionophore A23187 were also tested as controls.
After adding 100 μl IgE (100 ng/ml in PBS/ELP) to the cell pellets, cells were incubated for 12 hours over night, at 37° C. Cells were than incubated for 2 hours, at 37° C. with different concentrations of compounds. After centrifugation (200 g, 5 min), supernatant was discarded and cell pellet was again incubated for 1 hour, at 37° C. with 100 μl anti-IgE (1 μg/ml in PBS/ELP). For the final incubation time of 6 hours, at 37° C., 300 μl HMC1 media was added. Cells were again centrifuged (200 g, 5 min) and supernatant was collected and stored as 300 μl aliquots at −20° C. for ELISA measurements. Cell pellets were resuspended in 100 μl HMC1 media for determining cell viability.
The procedure was slightly different when the compound testing was calcium ionophore A23187. […]
The concentration of histamine in the collected supernatant was determined by ELISA, using a kit obtained from IBL International according to the manufacturer's guidelines. Each sample was measured twice. […]

Compound: CNc1ccc2oc(C[C@H]3O[C@@]4(CC[C@H]3C)O[C@H]([C@H](C)C(=O)c3ccc[nH]3)[C@H](C)C[C@H]4C)nc2c1C(=O)O [calcium ionophore, calcium ionophore A23187]
- effect on the cells (cell viability): cells were completely destroyed
- histamine production / release: highest values of histamine production
- histamine production / release (listed as Calcium ionophore): released all histamine
